Results on one molecule are retold here after PMC8336373, “Characterization of three glutamate decarboxylases from Bacillus spp. for efficient γ-aminobutyric acid production” (Microbial Cell Factories, 2021).

What all share (details): Na2HPO4-citric acid buffer, pH 5.0, 40 °C, 15 min, 5–150 mM L-Glu
The test system of one assay is GADZ1. An excerpt: HPLC of GABA (DABS-Cl derivatisation), initial rate nonlinear fit on GADZ1
The subject of a further assay is GADZ11. An excerpt: HPLC of GABA (DABS-Cl derivatisation), initial rate nonlinear fit on GADZ11
The subject of the next assay is GADZ20. From the text:
HPLC of GABA (DABS-Cl derivatisation), initial rate nonlinear fit on GADZ20

As a reminder, the Km is the concentration of substrate that gives half-maximal velocity.

With `N[C@@H](CCC(=O)O)C(=O)O` [L-Glu], the Km in the assay on GADZ1 stood at 45.4 ± 8.63 mM; with GADZ11, 52.4 ± 5.44 mM; in the assay on GADZ20, 13.3 ± 1.95 mM.
